Experimental data as given in ChEMBL document CHEMBL6114940, “Exploring the pharmaceutical potential of ammonium organotrifluoroborate functional group: Comprehensive chemical, metabolic, and plasma stability evaluation” (Eur J Med Chem, 2024).

Experiments:
[1] = (§1) Stability of compound in 0.05 M HCL assessed as 1-borono-N,N-dimethyl-N-((1-(2-(2-(2-(((2R,3R,4S,5S,6R)-3,4,5-trihydroxy-6-(hydroxymethyl)tetrahydro-2H-pyran-2-yl)oxy)ethoxy)ethoxy)ethyl)-1H-1,2,3-triazol-4-yl)methyl)methanaminium formation incubated for 72 hrs by LC-MS analysis; assay type: physicochemical; conditions: buffer
[2] = Stability in mouse plasma measured after 1 hr by LC-HRMS analysis; assay type: ADME, cell-free; conditions: read-out: Stability
[3] = Stability of compound in 0.3 % H2O2 assessed as (2R,3R,4S,5S,6R)-2-(2-(2-(2-(4-((dimethylamino)methyl)-1H-1,2,3-triazol-1-yl)ethoxy)ethoxy)ethoxy)-6-(hydroxymethyl)tetrahydro-2H-pyran-3,4,5-triol formation incubated for 1 hrs by LC-MS analysis; assay type: physicochemical
[4] = Stability of compound in 0.5 M NaOH assessed as half life incubated for 72 hrs by LC-MS analysis; assay type: physicochemical
[5] = as §1, with “20 mM CH3COONH4 buffer at pH 5.8” for “0.05 M HCL”; assay type: physicochemical; conditions: pH 5.8, 72 h
[6] = Stability of compound in 20 mM CH3COONH4 buffer at pH 5.8 assessed as solvolysis constant (K) incubated for 72 hrs by LC-MS analysis; assay type: physicochemical; parameters: unit not given beside the values; conditions: pH 5.8, 72 h
[7] = Metabolic stability in mouse liver microsomes assessed as drug hydrolysis 1-borono-N,N-dimethyl-N-((1-(2-(2-(2-(((2R,3R,4S,5S,6R)-3,4,5-trihydroxy-6-(hydroxymethyl)tetrahydro-2H-pyran-2-yl)oxy)ethoxy)ethoxy)ethyl)-1H-1,2,3-triazol-4-yl)methyl)methanaminium formation incubated for 1 hrs by LC-MS/MS analysis; assay type: ADME, Microsome
[8] = Stability of compound in 0.5 M NaOH assessed as 1-borono-N,N-dimethyl-N-((1-(2-(2-(2-(((2R,3R,4S,5S,6R)-3,4,5-trihydroxy-6-(hydroxymethyl)tetrahydro-2H-pyran-2-yl)oxy)ethoxy)ethoxy)ethyl)-1H-1,2,3-triazol-4-yl)methyl)methanaminium formation incubated for 72 hrs by LC-MS analysis; assay type: physicochemical
[9] = Stability of compound in 0.5 M NaOH assessed as N,N,N-trimethyl-1-(1-(2-(2-(2-(((2R,3R,4S,5S,6R)-3,4,5-trihydroxy-6-(hydroxymethyl)tetrahydro-2H-pyran-2-yl)oxy)ethoxy)ethoxy)ethyl)-1H-1,2,3-triazol-4-yl)methanaminium formation incubated for 72 hrs by LC-MS analysis; assay type: physicochemical
[10] = Stability of compound in 0.9 % saline solution assessed as 1-borono-N,N-dimethyl-N-((1-(2-(2-(2-(((2R,3R,4S,5S,6R)-3,4,5-trihydroxy-6-(hydroxymethyl)tetrahydro-2H-pyran-2-yl)oxy)ethoxy)ethoxy)ethyl)-1H-1,2,3-triazol-4-yl)methyl)methanaminium formation incubated for 72 hrs by LC-MS analysis; assay type: physicochemical; conditions: buffer
[11] = Stability of compound in 0.5 M NaOH assessed as solvolysis constant (K) incubated for 72 hrs by LC-MS analysis; assay type: physicochemical; parameters: unit not given beside the values
[12] = Stability of compound in 0.05 M HCL assessed as half life incubated for 72 hrs by LC-MS analysis; assay type: physicochemical
[13] = Stability of compound in 50 mM Tris-HCL buffer at pH 7.4 assessed as half life incubated for 72 hrs by LC-MS analysis; assay type: physicochemical
[14] = Stability of compound in 20 mM CH3COONH4 buffer at pH 5.8 assessed as half life incubated for 72 hrs by LC-MS analysis; assay type: physicochemical; conditions: 20 mM ammonium acetate (CH3COONH4) buffer
[15] = Stability of compound in 0.9 % saline solution assessed as solvolysis constant (K) incubated for 72 hrs by LC-MS analysis; assay type: physicochemical; conditions: buffer
[16] = Stability of compound in 50 mM Tris-HCL buffer at pH 7.4 assessed as solvolysis constant (K) incubated for 72 hrs by LC-MS analysis; assay type: physicochemical; conditions: pH 7.4, 72 h
[17] = Stability of compound in 50 mM Tris-HCL buffer at pH 7.4 assessed as 1-borono-N,N-dimethyl-N-((1-(2-(2-(2-(((2R,3R,4S,5S,6R)-3,4,5-trihydroxy-6-(hydroxymethyl)tetrahydro-2H-pyran-2-yl)oxy)ethoxy)ethoxy)ethyl)-1H-1,2,3-triazol-4-yl)methyl)methanaminium formation incubated for 72 hrs by LC-MS analysis; assay type: physicochemical; conditions: pH 7.4, 72 h
[18] = Stability of compound in 0.9 % saline solution assessed as half life incubated for 72 hrs by LC-MS analysis; assay type: physicochemical
[19] = Stability of compound in 0.05 M HCL assessed as solvolysis constant (K) incubated for 72 hrs by LC-MS analysis; assay type: physicochemical; parameters: unit not given beside the values; conditions: buffer
[20] = Metabolic stability in mouse liver microsomes assessed as drug hydrolysis by measuring 4-(boronomethyl)-4-(2-(2-(2-(((2R,3R,4S,5S,6R)-3,4,5-trihydroxy-6-(hydroxymethyl)tetrahydro-2H-pyran-2-yl)oxy)ethoxy)ethoxy)ethyl)morpholin-4-ium incubated for 1 hrs by LC-MS/MS analysis; assay type: ADME, Microsome
[21] = Stability of compound in 0.5 M NaOH assessed as 4-methyl-4-(2-(2-(2-(((2R,3R,4S,5S,6R)-3,4,5-trihydroxy-6-(hydroxymethyl)tetrahydro-2H-pyran-2-yl)oxy)ethoxy)ethoxy)ethyl)morpholin-4-ium formation incubated for 72 hrs by LC-MS analysis; assay type: physicochemical
[22] = Stability of compound in 20 mM CH3COONH4 buffer at pH 5.8 assessed as 4-(boronomethyl)-4-(2-(2-(2-(((2R,3R,4S,5S,6R)-3,4,5-trihydroxy-6-(hydroxymethyl)tetrahydro-2H-pyran-2-yl)oxy)ethoxy)ethoxy)ethyl)morpholin-4-ium formation incubated for 72 hrs by LC-MS analysis; assay type: physicochemical; conditions: pH 5.8, 72 h
[23] = Stability of compound in 0.05 M HCL assessed as 4-(boronomethyl)-4-(2-(2-(2-(((2R,3R,4S,5S,6R)-3,4,5-trihydroxy-6-(hydroxymethyl)tetrahydro-2H-pyran-2-yl)oxy)ethoxy)ethoxy)ethyl)morpholin-4-ium formation incubated for 72 hrs by LC-MS analysis; assay type: physicochemical; conditions: buffer
[24] = Stability of compound in 50 mM Tris-HCL buffer at pH 7.4 assessed as 4-(boronomethyl)-4-(2-(2-(2-(((2R,3R,4S,5S,6R)-3,4,5-trihydroxy-6-(hydroxymethyl)tetrahydro-2H-pyran-2-yl)oxy)ethoxy)ethoxy)ethyl)morpholin4ium formation incubated for 72 hrs by LC-MS analysis; assay type: physicochemical; conditions: pH 7.4, 72 h
[25] = Stability of compound in 0.9 % saline solution assessed as 4-(boronomethyl)-4-(2-(2-(2-(((2R,3R,4S,5S,6R)-3,4,5-trihydroxy-6-(hydroxymethyl)tetrahydro-2H-pyran-2-yl)oxy)ethoxy)ethoxy)ethyl)morpholin-4-ium formation incubated for 72 hrs by LC-MS analysis; assay type: physicochemical; conditions: buffer
[26] = Stability of compound in 0.5 M NaOH assessed as 4-(boronomethyl)-4-(2-(2-(2-(((2R,3R,4S,5S,6R)-3,4,5-trihydroxy-6-(hydroxymethyl)tetrahydro-2H-pyran-2-yl)oxy)ethoxy)ethoxy)ethyl)morpholin-4-ium formation incubated for 72 hrs by LC-MS analysis; assay type: physicochemical
[27] = Stability of compound in 0.3 % H2O2 assessed as (2R,3S,4S,5R,6R)-2-(hydroxymethyl)-6-(2-(2-(2-morpholinoethoxy)ethoxy)ethoxy)tetrahydro-2H-pyran-3,4,5-triol formation incubated for 1 hrs by LC-MS analysis; assay type: physicochemical
[28] = Stability of compound in 0.3 % H2O2 assessed as (2R,3S,4S,5R,6R)-2-(hydroxymethyl)-6-(2-(2-(2-(piperidin-1-yl)ethoxy)ethoxy)ethoxy)tetrahydro-2H-pyran-3,4,5-triol formation incubated for 1 hrs by LC-MS analysis; assay type: physicochemical
[29] = Stability of compound in 0.9 % saline solution assessed as 1-(boronomethyl)-1-(2-(2-(2-(((2R,3R,4S,5S,6R)-3,4,5-trihydroxy-6-(hydroxymethyl)tetrahydro-2H-pyran-2-yl)oxy)ethoxy)ethoxy)ethyl)piperidin-1-ium formation incubated for 72 hrs by LC-MS analysis; assay type: physicochemical; conditions: buffer
[30] = Stability of compound in 50 mM Tris-HCL buffer at pH 7.4 assessed as 1-(boronomethyl)-1-(2-(2-(2-(((2R,3R,4S,5S,6R)-3,4,5-trihydroxy-6-(hydroxymethyl)tetrahydro-2H-pyran-2-yl)oxy)ethoxy)ethoxy)ethyl)piperidin1ium formation incubated for 72 hrs by LC-MS analysis; assay type: physicochemical; conditions: pH 7.4, 72 h
[31] = Stability of compound in 20 mM CH3COONH4 buffer at pH 5.8 assessed as 1-(boronomethyl)-1-(2-(2-(2-(((2R,3R,4S,5S,6R)-3,4,5-trihydroxy-6-(hydroxymethyl)tetrahydro-2H-pyran-2-yl)oxy)ethoxy)ethoxy)ethyl)piperidin-1-ium formation incubated for 72 hrs by LC-MS analysis; assay type: physicochemical; conditions: pH 5.8, 72 h
[32] = Stability of compound in 0.05 M HCL assessed as 1-(boronomethyl)-1-(2-(2-(2-(((2R,3R,4S,5S,6R)-3,4,5-trihydroxy-6-(hydroxymethyl)tetrahydro-2H-pyran-2-yl)oxy)ethoxy)ethoxy)ethyl)piperidin-1-ium formation incubated for 72 hrs by LC-MS analysis; assay type: physicochemical; conditions: buffer
[33] = Metabolic stability in mouse liver microsomes assessed as drug hydrolysis by measuring 1-(boronomethyl)-1-(2-(2-(2-(((2R,3R,4S,5S,6R)-3,4,5-trihydroxy-6-(hydroxymethyl)tetrahydro-2H-pyran-2-yl)oxy)ethoxy)ethoxy)ethyl)piperidin-1-ium formation incubated for 1 hrs by LC-MS/MS analysis; assay type: ADME, Microsome
[34] = Stability of compound in 0.5 M NaOH assessed as 1-(boronomethyl)-1-(2-(2-(2-(((2R,3R,4S,5S,6R)-3,4,5-trihydroxy-6-(hydroxymethyl)tetrahydro-2H-pyran-2-yl)oxy)ethoxy)ethoxy)ethyl)piperidin-1-ium formation incubated for 72 hrs by LC-MS analysis; assay type: physicochemical
[35] = Stability of compound in 0.5 M NaOH assessed as 1-methyl-1-(2-(2-(2-(((2R,3R,4S,5S,6R)-3,4,5-trihydroxy-6-(hydroxymethyl)tetrahydro-2H-pyran-2-yl)oxy)ethoxy)ethoxy)ethyl)piperidin-1-ium formation incubated for 72 hrs by LC-MS analysis; assay type: physicochemical

Row | SMILES | remaining at 1 h [2] | half-life [4] | K [6] | K [11] | half-life [12] | half-life [13] | half-life [14] | K [15] | K [16] | half-life [18] | K [19] | further results
1 | C[N+](C)(Cc1cn(CCOCCOCCO[C@@H]2O[C@H](CO)[C@@H](O)[C@H](O)[C@H]2O)nn1)C[B-](F)(F)F | 1.2% | 36 h | 0.003 | 0.019 | 1.42 h | ≥ 58 h | ≥ 15.7 h | 0.018 | 0.005 | 38.4 h | 0.489 | Stability [1]: Stable; Stability [3]: Stable; Stability [5]: Stable; Drug metabolism [7]: metabolite_detected; Stability [8]: Stable; Stability [9]: Stable; Stability [10]: Stable; Stability [17]: Stable
2 | OC[C@H]1O[C@@H](OCCOCCOCC[N+]2(C[B-](F)(F)F)CCOCC2)[C@H](O)[C@@H](O)[C@@H]1O | 2.73% | 11.3 h | 0.021 | 0.061 | 0.301 h | 10.1 h | 32.7 h | 0.136 | 0.068 | 5.11 h | 2.302 | Drug metabolism [20]: metabolite_detected; Stability [21]: Stable; Stability [22]: Stable; Stability [23]: Stable; Stability [24]: Stable; Stability [25]: Stable; Stability [26]: Stable; Stability [27]: Stable
3 | OC[C@H]1O[C@@H](OCCOCCOCC[N+]2(C[B-](F)(F)F)CCCCC2)[C@H](O)[C@@H](O)[C@@H]1O | 14.1% | 4.95 h | 0.078 | 0.14 | 0.108 h | 4.76 h | 8.82 h | 0.383 | 0.146 | 1.81 h | 6.439 | Stability [28]: Stable; Stability [29]: Stable; Stability [30]: Stable; Stability [31]: Stable; Stability [32]: Stable; Drug metabolism [33]: metabolite_detected; Stability [34]: Stable; Stability [35]: Stable
